Laboratory results taken from patent US11629129B2, “Microbiocidal picolinamide derivatives” (SYNGENTA PARTICIPATIONS AG, priority 2018, dated 2023).

Tests used:
[1] = test system: Monographella nivalis (Microdochium nivale); assay: Monographella nivalis (Microdochium nivale)/Liquid Culture (Foot Rot Cereals); format: cell-based; conditions: 200 ppm in the formulation, liquid culture, growth inhibition photometrically 4-5 days after application, compared to untreated control, read-out: disease control
Experimental: Monographella nivalis (Microdochium nivale)/Liquid Culture (Foot Rot Cereals) Conidia of the fungus from cryogenic storage are directly mixed into nutrient broth (PDB potato dextrose broth). After placing a (DMSO) solution of test compound into a microtiter plate (96-well format), the nutrient broth containing the fungal spores is added. The test plates are incubated at 24° C. and the inhibition of growth is determined photometrically 4-5 days after application.

[2] = test system: Glomerella lagenarium (Colletotrichum lagenarium); assay: Glomerella lagenarium (Colletotrichum lagenarium)/Liquid Culture (Anthracnose); format: cell-based; conditions: Colletotrichum orbiculare; 200 ppm in the formulation; liquid culture, growth inhibition photometrically 3 to 4 days after application; compared to untreated control; read-out: disease control
Experimental: Glomerella lagenarium (Colletotrichum lagenarium)/Liquid Culture (Anthracnose) Conidia of the fungus from cryogenic storage are directly mixed into nutrient broth (PDB potato dextrose broth). After placing a (DMSO) solution of test compound into a microtiter plate (96-well format), the nutrient broth containing the fungal spores is added. The test plates are incubated at 24° C. and the inhibition of growth is measured photometrically 3 to 4 days after application.

[3] = test system: Mycosphaerella arachidis (Cercospora arachidicola); assay: Mycosphaerella arachidis (Cercospora arachidicola)/Liquid Culture (Early Leaf Spot); format: cell-based; conditions: 200 ppm in the formulation, liquid culture, growth inhibition photometrically 4-5 days after application, compared to untreated control, read-out: disease control
Experimental: Mycosphaerella arachidis (Cercospora arachidicola)/Liquid Culture (Early Leaf Spot) Conidia of the fungus from cryogenic storage are directly mixed into nutrient broth (PDB potato dextrose broth). After placing a (DMSO) solution of test compound into a microtiter plate (96-well format), the nutrient broth containing the fungal spores is added. The test plates are incubated at 24° C. and the inhibition of growth is determined photometrically 4-5 days after application.

[4] = test system: Mycosphaerella graminicola (Septoria tritici); assay: Mycosphaerella graminicola (Septoria tritici)/Liquid Culture (Septoria Blotch); format: cell-based; conditions: Zymoseptoria tritici; 200 ppm in the formulation; liquid culture, growth inhibition photometrically 4 to 5 days after application; compared to untreated control; read-out: disease control
Experimental: Mycosphaerella graminicola (Septoria tritici)/Liquid Culture (Septoria Blotch) Conidia of the fungus from cryogenic storage are directly mixed into nutrient broth (PDB potato dextrose broth). After placing a (DMSO) solution of test compound into a microtiter plate (96-well format), the nutrient broth containing the fungal spores is added. The test plates are incubated at 24° C. and the inhibition of growth is determined photometrically 4 to 5 days after application.

[5] = test system: Puccinia recondita f. sp. tritici; assay: Puccinia recondita f. sp. tritici/Wheat/Leaf Disc Preventative (Brown Rust); format: in vivo; conditions: foliar, 200 ppm in the formulation, wheat leaf segments cv. Kanzler, inoculated 1 day after application, assessed 7-9 days after application, compared to untreated, read-out: disease control
Experimental: Puccinia recondita f. sp. tritici/Wheat/Leaf Disc Preventative (Brown Rust) Wheat leaf segments cv. Kanzler are placed on agar in multiwell plates (24-well format) and sprayed with the formulated test compound diluted in water. The leaf disks are inoculated with a spore suspension of the fungus 1 day after application. The inoculated leaf segments are incubated at 19° C. and 75% rh under a light regime of 12 h light/12 h darkness in a climate cabinet and the activity of a compound is assessed as percent disease control compared to untreated when an appropriate level of disease damage appears in untreated check leaf segments (7-9 days after application).

COc1ccnc(C(=O)N[C@@H](C)C(=O)O[C@@H](C)c2ccc(-c3ccc(C(F)(F)F)nc3)cc2)c1O [I.af.001, [(1S)-1-[4-[6-(trifluoromethyl)-3-pyridyl]phenyl]ethyl] (2S)-2-[(3-hydroxy-4-methoxy-pyridine-2-carbonyl)amino] propanoate]
≥ 80%: inhibition of growth at 200 ppm [1] | inhibition of growth at 200 ppm [2] | inhibition of growth at 200 ppm [3] | inhibition of growth at 200 ppm [4] | pest or weed control at 200 ppm [5]

COc1ccnc(C(=O)N[C@@H](C)C(=O)O[C@@H](C)c2ccc(-c3cncc(Cl)c3)cc2)c1O [I.ah.001, [(1S)-1-[4-(5-chloro-3-pyridyl)phenyl]ethyl] (2S)-2-[(3-hydroxy-4-methoxy-pyridine-2-carbonyl)amino] propanoate]
≥ 80%: inhibition of growth at 200 ppm [1] | inhibition of growth at 200 ppm [2] | inhibition of growth at 200 ppm [3] | inhibition of growth at 200 ppm [4] | pest or weed control at 200 ppm [5]

COc1ccnc(C(=O)N[C@@H](C)C(=O)O[C@@H](C)c2cccc(Oc3cccc(Cl)c3)c2)c1O [I.ar.001, [(1S)-1-[3-(3-chlorophenoxy)phenyl]ethyl] (2S)-2-[(3-hydroxy-4-methoxy-pyridine-2-carbonyl)amino] propanoate]
≥ 80%: inhibition of growth at 200 ppm [2] | inhibition of growth at 200 ppm [3] | inhibition of growth at 200 ppm [4] | pest or weed control at 200 ppm [5]

COc1ccnc(C(=O)N[C@@H](C)C(=O)O[C@@H](C)c2ccc(Oc3ccccc3)cc2)c1O [I.at.001, [(1S)-1-(4-phenoxyphenyl)ethyl] (2S)-2-[(3-hydroxy-4-methoxy-pyridine-2-carbonyl)amino] propanoate]
≥ 80%: inhibition of growth at 200 ppm [1] | inhibition of growth at 200 ppm [2] | inhibition of growth at 200 ppm [3] | inhibition of growth at 200 ppm [4] | pest or weed control at 200 ppm [5]

COc1ccnc(C(=O)N[C@@H](C)C(=O)O[C@@H](C)c2ccc(Oc3cccc(Cl)c3)cc2)c1O [I.au.001, [(1S)-1-[4-(3-chlorophenoxy)phenyl]ethyl] (2S)-2-[(3-hydroxy-4-methoxy-pyridine-2-carbonyl)amino] propanoate]
≥ 80%: inhibition of growth at 200 ppm [1] | inhibition of growth at 200 ppm [2] | inhibition of growth at 200 ppm [3] | inhibition of growth at 200 ppm [4] | pest or weed control at 200 ppm [5]

COc1ccnc(C(=O)N[C@@H](C)C(=O)O[C@@H](C)c2ccc(Oc3ccc(Cl)cc3)cc2)c1O [I.av.001, [(1S)-1-[4-(4-chlorophenoxy)phenyl]ethyl] (2S)-2-[(3-hydroxy-4-methoxy-pyridine-2-carbonyl)amino] propanoate]
≥ 80%: inhibition of growth at 200 ppm [1] | inhibition of growth at 200 ppm [2] | inhibition of growth at 200 ppm [3] | inhibition of growth at 200 ppm [4] | pest or weed control at 200 ppm [5]

COc1ccnc(C(=O)N[C@@H](C)C(=O)O[C@@H](C)c2ccc(-c3ccc(Cl)c(C)c3)cc2)c1O [I.y.001, [(1S)-1-[4-(4-chloro-3-methyl-phenyl)phenyl]ethyl] (2S)-2-[(3-hydroxy-4-methoxy-pyridine-2-carbonyl)amino] propanoate]
≥ 80%: inhibition of growth at 200 ppm [2] | inhibition of growth at 200 ppm [3] | inhibition of growth at 200 ppm [4] | pest or weed control at 200 ppm [5]
